# In patent US20230135100A1, “PROCESS OF PREPARING A PEPTIDE EPOXYKETONE IMMUNOPROTEASOME INHIBITOR, AND PRECURSORS THEREOF” (KEZAR LIFE SCIENCES, priority 2016, published 2023):
# Several values for one entry are separate records, joined by “and”; a condition that tells them apart may be missing. Equal entries are not always repeated. Structures can show the parent of a compound that is named as a salt. Where two headings read alike, the source gives them in different places.
# Details: 25° C., relative humidity 40%
SMILES,% Purity at Indicated Time (days) (90 days),% Decomposition (1 day),% Purity at Indicated Time (days) (1 day)
"C[C@]1(C(=O)[C@@H](N)CC2=CCCC2)CO1 [Tosylate, (S)-3-(cyclopent-1-en-1-yl)-1-((R)-2-methyloxiran-2-yl)-1-oxopropan-2-aminium salt]",96.0 (90) % and 85.0 (90) %,–,–
"C[C@]1(C(=O)[C@@H](N)CC2=CCCC2)CO1 [Trifluoroacetate, (S)-3-(cyclopent-1-en-1-yl)-1-((R)-2-methyloxiran-2-yl)-1-oxopropan-2-aminium salt]",–,5.7% and 8.8%,79.6 (1) % and 86.0 (1) %
